Test systems include A498; BT-549; DU-145; HCT-116; HOP-62; HOP-92; K562; MCF7; MDA-MB-435; MDA-N; MOLT-4; NCI-H226; RXF 393; SF-268; SK-MEL-5; SN12C; SNB-75; SR; SW-620.
What all share (test): NCI tumour cell line growth inhibition, 48 h

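These data come from cells grown in 96-well plates and exposed to compound for 48 hours at five concentrations. The concentration for 50% growth inhibition is given as GI50.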 Active and inactive are the calls of the source. Rule as the data show it: active = GI50 up to about 1.1 µM and inactive = higher. A value given as a limit tells only on which side of the number the result lay.

On to `O=C1Nc2ccc(Br)cc2/C1=N/NC(=S)Nc1ccc([N+](=O)[O-])cc1`, for which the GI50 in the assay with A498 was 5.56 µM (inactive); with BT-549, 2.28 µM (inactive); in the assay with DU-145 it was 11.9 µM (inactive); in the assay with HCT-116, 5.35 µM (inactive); in the assay with HOP-62, 11.4 µM (inactive); with HOP-92 it was 9.77 µM (inactive). Besides, the GI50 in the assay on K562 was 9.48 µM (inactive); in the assay with MCF7, 7.13 µM (inactive); with MDA-MB-435, 6.41 µM (inactive); in the assay with MDA-N, 7.98 µM (inactive); in the assay on MOLT-4 it was 5.31 µM (inactive); with NCI-H226 it was 15.9 µM (inactive). The GI50 with RXF 393 is 11.8 µM (inactive); in the assay on SF-268, 9.04 µM (inactive); with SK-MEL-5, 7.74 µM (inactive); with SN12C, 8.02 µM (inactive); in the assay on SNB-75 it was 16 µM (inactive); in the assay with SR, 5.05 µM (inactive). Moreover, the GI50 in the assay on SW-620 is 6.81 µM (inactive).

On to `O=[N+]([O-])c1ccc(C[S+]([O-])Cc2ccccc2)cc1` (stereo not given), for which the GI50 in the assay on A498, with BT-549, in the assay on DU-145, in the assay on HCT-116, in the assay on HOP-62 and with HOP-92 was > 100 µM (inactive) throughout. Also, the GI50 in the assay on K562, with MCF7, with MDA-MB-435, in the assay with MDA-N, in the assay with MOLT-4 and in the assay with NCI-H226 was > 100 µM (inactive) throughout. The GI50 in the assay with RXF 393 was > 100 µM (inactive); in the assay on SF-268, > 100 µM (inactive); in the assay on SK-MEL-5, > 100 µM (inactive); in the assay on SN12C it was > 100 µM (inactive); with SNB-75, 39.9 µM (inactive); with SR, > 100 µM (inactive). In addition, in the assay with SW-620, the GI50 was > 100 µM (inactive).

As for `Cc1ccc2nc(-c3ccc(-n4c(C)nc(=O)c(-c5ccc(F)cc5)c4C)cc3)sc2c1`, the GI50 in the assay on A498 is 18.2 µM (inactive); with BT-549, 14.5 µM (inactive); with DU-145, 15.9 µM (inactive); with HCT-116, 11.9 µM (inactive); in the assay on HOP-62, 22 µM (inactive); in the assay with HOP-92, 17.6 µM (inactive). In addition, the GI50 with K562 was 10.8 µM (inactive); in the assay with MCF7, 13.3 µM (inactive); in the assay on MDA-MB-435 it was 15.1 µM (inactive); in the assay with MDA-N, 14.4 µM (inactive); in the assay on MOLT-4 it was 7 µM (inactive); in the assay on NCI-H226, 17.5 µM (inactive). Moreover, the GI50 is 9.75 µM (inactive) with RXF 393; 20.3 µM (inactive) in the assay with SF-268; 10.8 µM (inactive) in the assay with SK-MEL-5; 15 µM (inactive) with SN12C; 13.7 µM (inactive) in the assay with SNB-75; 6.12 µM (inactive) in the assay with SR. The GI50 with SW-620 is 21.6 µM (inactive).

As for `CC1=NN2C(=N)/C(=C/c3ccccc3)C(=O)N=C2S1`, the GI50 in the assay with A498, with BT-549, in the assay on DU-145, with HCT-116, with HOP-62 and in the assay on HOP-92 was > 100 µM (inactive) in each case. The GI50 in the assay on K562 was > 100 µM (inactive); in the assay with MCF7, 0.867 µM (active); in the assay with MDA-MB-435 it was > 100 µM (inactive); with MDA-N it was > 100 µM (inactive); with MOLT-4, > 100 µM (inactive); in the assay with NCI-H226, > 100 µM (inactive). Further, the GI50 with RXF 393, with SF-268, with SK-MEL-5, in the assay with SN12C, with SNB-75 and in the assay on SR was > 100 µM (inactive) each time. The GI50 with SW-620 is > 100 µM (inactive).

For the molecule `[N-]=[N+]=NC1C(O)C(CO)OC1n1cnc2c(N)ncnc21` (stereo not given), the GI50 in the assay on A498 is 66.8 µM (inactive); in the assay on BT-549 it was 54.8 µM (inactive); in the assay on DU-145, 3.04 µM (inactive); with HCT-116, 42.3 µM (inactive); in the assay with HOP-62 it was 84.9 µM (inactive); in the assay with HOP-92 it was 45.7 µM (inactive). Also, the GI50 with K562 is 19.3 µM (inactive); in the assay on MCF7, 5.21 µM (inactive); in the assay on MDA-MB-435 it was 82.6 µM (inactive); in the assay with MDA-N, 71.3 µM (inactive); in the assay with MOLT-4, 9.51 µM (inactive); with NCI-H226, 51.6 µM (inactive). For the same molecule, the GI50 in the assay on RXF 393 was 66.2 µM (inactive); in the assay with SF-268, 51.1 µM (inactive); with SK-MEL-5 it was > 100 µM (inactive); with SN12C, 25.9 µM (inactive); in the assay on SNB-75 it was 36.4 µM (inactive); in the assay on SR, 1.67 µM (inactive). For the same molecule, the GI50 with SW-620 is 60.5 µM (inactive).

Consider `COc1cc(/C=N/c2ccccn2)cc(OC)c1OC`, for which the GI50 in the assay with A498, in the assay with BT-549, in the assay with DU-145, with HCT-116, in the assay with HOP-62 and with HOP-92 was > 100 µM (inactive) throughout. The GI50 with K562 was > 100 µM (inactive); with MCF7, 54.5 µM (inactive); with MDA-MB-435, 24.5 µM (inactive); in the assay with MDA-N, 28.3 µM (inactive); with MOLT-4, > 100 µM (inactive); in the assay with NCI-H226, > 100 µM (inactive). Besides, the GI50 in the assay on RXF 393 is 58.7 µM (inactive); in the assay on SF-268, > 100 µM (inactive); in the assay with SK-MEL-5, > 93.1 µM (inactive); with SN12C it was > 100 µM (inactive); in the assay with SNB-75, > 100 µM (inactive); in the assay with SR it was > 63.2 µM (inactive). Also, the GI50 in the assay with SW-620 is > 100 µM (inactive).

Consider `COc1c2c(cc3c1-c1c(cc4c(c1OC)OCO4)C1OC3C(C)C1C)OCO2.COc1cc2c(c(OC)c1OC)-c1c(cc3c(c1OC)OCO3)C1OC2C(C)C1C` (stereo not given), for which the GI50 is > 100 µM (inactive) in the assay on A498; 61.2 µM (inactive) in the assay on BT-549; 91.8 µM (inactive) in the assay on DU-145; 87.3 µM (inactive) in the assay with HCT-116; > 100 µM (inactive) with HOP-62; > 100 µM (inactive) with HOP-92. The GI50 is 72.8 µM (inactive) in the assay on K562; > 100 µM (inactive) in the assay on MCF7; > 100 µM (inactive) in the assay on MDA-MB-435; > 100 µM (inactive) with MDA-N; 22.3 µM (inactive) in the assay with MOLT-4; > 100 µM (inactive) with NCI-H226. Moreover, the GI50 with RXF 393 was > 100 µM (inactive); with SF-268, > 100 µM (inactive); in the assay with SK-MEL-5, 78 µM (inactive); in the assay on SN12C, > 100 µM (inactive); in the assay with SNB-75 it was 33 µM (inactive); with SR, > 100 µM (inactive). For the same molecule, the GI50 with SW-620 is > 100 µM (inactive).

As for `CC(NC(=O)OC(C)(C)C)C(=O)NC(Cc1ccccc1)C(=O)NCC(=O)ON=C1CCCC1` (stereo not given), the GI50 in the assay with A498 is > 100 µM (inactive); in the assay on BT-549, > 100 µM (inactive); in the assay on DU-145, > 100 µM (inactive); in the assay with HCT-116, 72.8 µM (inactive); with HOP-62 it was > 100 µM (inactive); in the assay on HOP-92 it was > 100 µM (inactive). Further, the GI50 in the assay with K562 was 43.6 µM (inactive); in the assay on MCF7, 63.1 µM (inactive); in the assay on MDA-MB-435 it was > 100 µM (inactive); in the assay with MDA-N, 35.6 µM (inactive); in the assay on MOLT-4, 41.9 µM (inactive); in the assay with NCI-H226, > 100 µM (inactive). The GI50 in the assay on RXF 393 was > 100 µM (inactive); in the assay with SF-268, > 100 µM (inactive); in the assay with SK-MEL-5 it was > 100 µM (inactive); in the assay on SN12C it was > 100 µM (inactive); in the assay with SNB-75 it was 93.1 µM (inactive); with SR, 31 µM (inactive). Further, the GI50 in the assay on SW-620 was > 100 µM (inactive).

In the case of `CCC(c1ccc2cc(O)ccc2c1)C(C)(C)C(=O)O` (stereo not given), the GI50 with A498, in the assay with BT-549, in the assay on DU-145, in the assay on HCT-116, in the assay with HOP-62 and in the assay on HOP-92 was > 100 µM (inactive) each time. Besides, the GI50 with K562, with MCF7, with MDA-MB-435, in the assay on MDA-N, in the assay with MOLT-4 and in the assay on NCI-H226 was > 100 µM (inactive) in each case. Moreover, the GI50 in the assay on RXF 393, in the assay on SF-268, with SK-MEL-5, with SN12C, in the assay on SNB-75 and in the assay on SR was > 100 µM (inactive) in each case. The GI50 in the assay with SW-620 is > 100 µM (inactive).

On to `N#C/C(=C\NC(=S)c1ccncc1)c1nc2ccccc2s1`, for which the GI50 with A498, in the assay with BT-549, in the assay with DU-145, in the assay with HCT-116, with HOP-62 and with HOP-92 was > 100 µM (inactive) in each case. The GI50 in the assay on K562 is > 100 µM (inactive); in the assay on MCF7, 76.9 µM (inactive); with MDA-MB-435, > 100 µM (inactive); in the assay on MDA-N it was > 100 µM (inactive); with MOLT-4, 31.2 µM (inactive); in the assay on NCI-H226, > 100 µM (inactive). For the same molecule, the GI50 with RXF 393 is > 100 µM (inactive); in the assay with SF-268, > 100 µM (inactive); in the assay with SK-MEL-5, > 100 µM (inactive); with SN12C, > 100 µM (inactive); in the assay on SNB-75 it was 68.1 µM (inactive); in the assay with SR it was 74.6 µM (inactive). Moreover, the GI50 in the assay with SW-620 is > 100 µM (inactive).

The values are drawn from ChEMBL document CHEMBL1201862, “PubChem BioAssay data set” (2004).
